In US20250340529A1, “Heterocyclic Compounds as Immunomodulators of PD-L1 Interactions” (Ascletis BioScience Co., Ltd, priority 2021, published 2025):

Molecular target: PD-1/PD-L1 (Homo sapiens (Human), UniProt Q9NZQ7)
Test: PD-1/PD-L1 Homogeneous Time-Resolved Fluorescence (HTRF) binding assay
Conditions: 3 nM PD1, 10 nM PD-L1, 25° C., PBS pH 7.4
Description: PD-1/PD-L1 Homogeneous Time-Resolved Fluorescence (HTRF) Binding Assay
The assays were conducted in a standard black 384-well polystyrene plate with a final volume of 20 μL. Inhibitors were first serially diluted in DMSO and then added to the plate wells before the addition of other reaction components. The final concentration of DMSO in the assay was 1%. The assays were carried out at 25° C. in the PBS buffer (pH 7.4) with 0.05% Tween-20 and 0.1% BSA. Recombinant human PD-L1 protein (19-238) with a Histag at the C-terminus was purchased from AcroBiosystems (PD1-H5229). Recombinant human PD-1 protein (25-167) with Fe tag at the C-terminus was also purchased from AcroBiosystems (PD1-H5257). PD-L1 and PD-1 proteins were diluted in the assay buffer and 10 μL was added to the plate well. Plates were centrifuged and proteins were preincubated with inhibitors for 40 minutes. The incubation was followed by the addition of 10 μL of HTRF detection buffer supplemented with Europium cryptate-labeled anti-human IgG (PerkinElmer-AD0212) specific for Fe and anti-His antibody conjugated to SureLight®-Allophycocyanin (APC, PerkinElmer-AD0059H). After centrifugation, the plate was incubated at 25° C. for 60 min. before reading on a PHERAstar FS plate reader (665 nm/620 nm ratio). Final concentrations in the assay were—3 nM PD1, 10 nM PD-L1, 1 nM europium anti-human IgG and 20 nM anti-His-Allophycocyanin. IC50 determination was performed by fitting the curve of percent control activity versus the log of the inhibitor concentration.

Sequence of PD-1/PD-L1 (Q9NZQ7 19-238): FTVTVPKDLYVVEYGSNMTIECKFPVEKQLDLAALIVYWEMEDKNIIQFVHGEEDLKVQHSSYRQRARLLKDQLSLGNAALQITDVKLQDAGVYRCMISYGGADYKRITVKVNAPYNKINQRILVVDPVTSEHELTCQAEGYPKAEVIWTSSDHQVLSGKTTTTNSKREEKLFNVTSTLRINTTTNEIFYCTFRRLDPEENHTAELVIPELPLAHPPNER

SMILES	IC50 [nM]
O=C1CC[C@@H](CN2C(=O)CCc3cc(-c4cccc(-c5cccc(-c6ccc7c(c6)CCC(=O)N7C[C@@H]6CCC(=O)N6)c5Cl)c4Cl)ccc32)N1 [Compound 281, 6,6′-(2,2′-dichloro-[1,1′-biphenyl]-3,3′-diyl)bis(1-(((S)-5-oxopyrrolidin-2-yl)methyl)-3,4-dihydroquinolin-2(1H)-one)]	26.7
O=C1COc2cc(-c3cccc(-c4cccc(-c5ccc6c(c5)OCC(=O)N6CCN5CCNC5=O)c4Cl)c3Cl)ccc2N1 [Compound 385]	264
O=C1CCCN1CCN1C(=O)COc2cc(-c3cccc(-c4cccc(-c5ccc6c(c5)OCC(=O)N6CCN5CCCC5=O)c4Cl)c3Cl)ccc21 [Compound 394]	471
COC(=O)N[C@H](C(=O)N1CCC[C@H]1CN1C(=O)COc2cc(-c3cccc(-c4cccc(-c5ccc6c(c5)OCC(=O)N6C[C@@H]5CCCN5C(=O)[C@@H](NC(=O)OC)C(C)C)c4Cl)c3Cl)ccc21)C(C)C [Compound 422]	≥ 3000
NC(=O)C[C@H](NCCN1C(=O)COc2cc(-c3cccc(-c4cccc(-c5ccc6c(c5)OCC(=O)N6CCN[C@@H](CC(N)=O)C(=O)O)c4Cl)c3Cl)ccc21)C(=O)O [Compound 570]	10.9
CC(=O)NCCNCCN1C(=O)COc2cc(-c3cccc(-c4cccc(-c5ccc6c(c5)OCC(=O)N6C[C@@H]5CCCN5)c4Cl)c3Cl)ccc21 [Compound 516]	10.5
O=C(O)CCCCNCCN1C(=O)COc2cc(-c3cccc(-c4cccc(-c5ccc6c(c5)OCC(=O)N6CCNCCCCC(=O)O)c4Cl)c3Cl)ccc21 [Compound 490]	3.51
O=C1CC[C@@H](Cn2c(=O)cnc3cc(-c4cccc(-c5cccc(-c6ccc7c(c6)ncc(=O)n7C[C@@H]6CCC(=O)N6)c5Cl)c4Cl)ccc32)N1 [Compound 361]	1.75
O=C1COc2cc(-c3cccc(-c4cccc(-c5ccc6c(c5)OCC(=O)N6C[C@@H]5CCCN5)c4Cl)c3Cl)ccc2N1CCN1CC[C@H](O)C1 [Compound 515]	8.71
O=C1CC[C@@H](CN2C(=O)COc3nc(-c4cccc(-c5cccc(-c6cnc7c(n6)OCC(=O)N7C[C@@H]6CCC(=O)N6)c5Cl)c4Cl)cnc32)N1 [Compound 466]	5
O=C1COc2cc(-c3cccc(-c4cccc(-c5ccc6c(c5)OCC(=O)N6C[C@@H]5CCCCN5)c4Cl)c3Cl)ccc2N1C[C@@H]1CCCCN1 [Compound 558]	10.6
O=C1COc2cc(-c3cccc(-c4cccc(-c5ccc6c(c5)OCC(=O)N6CCn5cncn5)c4Cl)c3Cl)ccc2N1CCn1cncn1 [Compound 374]	68.2
O=C1C[C@@H](NCCN2C(=O)COc3cc(-c4cccc(-c5cccc(-c6ccc7c(c6)OCC(=O)N7CCN[C@H]6COC(=O)C6)c5Cl)c4Cl)ccc32)CO1 [Compound 527]	9.41
CC(=O)N1CCC(N2C(=O)COc3cc(-c4cccc(-c5cccc(-c6ccc7c(c6)OCC(=O)N7C6CCN(C(C)=O)CC6)c5Cl)c4Cl)ccc32)CC1 [Compound 408]	571
O=C(O)CNCCCN1C(=O)COc2cc(-c3cccc(-c4cccc(-c5ccc6c(c5)OCC(=O)N6CCCNCC(=O)O)c4Cl)c3Cl)ccc21 [Compound 479]	6.02
O=C1COc2cc(-c3cccc(-c4cccc(-c5ccc6c(c5)OCC(=O)N6CCO)c4Cl)c3Cl)ccc2N1CCO [Compound 378]	69.7
O=C1COc2cc(-c3cccc(-c4cccc(-c5ccc6c(c5)OCC(=O)N6Cc5ncc[nH]5)c4Cl)c3Cl)ccc2N1Cc1ncc[nH]1 [Compound 415]	104
O=C1NCCN1CCN1C(=O)COc2cc(-c3cccc(-c4cccc(-c5ccc6c(c5)OCC(=O)N6CCN5CCNC5=O)c4Cl)c3Cl)ccc21 [Compound 384]	260
O=C(O)[C@@H]1C[C@H](O)CN1CCN1C(=O)COc2cc(-c3cccc(-c4cccc(-c5ccc6c(c5)OCC(=O)N6CCN5C[C@@H](O)C[C@H]5C(=O)O)c4Cl)c3Cl)ccc21 [Compound 478]	8.76
CC(=O)NCCNCCN1C(=O)COc2cc(-c3cccc(-c4cccc(-c5ccc6c(c5)OCC(=O)N6C[C@@H]5CCC(=O)N5)c4Cl)c3Cl)ccc21 [Compound 489]	6.31
O=C(O)C1CCCCN1CCN1C(=O)COc2cc(-c3cccc(-c4cccc(-c5ccc6c(c5)OCC(=O)N6CCN5CCCCC5C(=O)O)c4Cl)c3Cl)ccc21 (centres unmarked) [Compound 513]	8.23
CC1(C)Oc2cc(-c3cccc(-c4cccc(-c5ccc6c(c5)OC(C)(C)C(=O)N6C[C@@H]5CCC(=O)N5)c4Cl)c3Cl)ccc2N(C[C@@H]2CCC(=O)N2)C1=O [Compound 372]	≥ 3000

SMILES	IC50 [nM]
N#CCN1C(=O)COc2cc(-c3cccc(-c4cccc(-c5ccc6c(c5)OCC(=O)N6CC#N)c4Cl)c3Cl)ccc21 [Compound 397, 2,2′-((2,2′-dichloro-[1,1′-biphenyl]-3,3′-diyl)bis(3-oxo-2,3-dihydro-4H-benzo[b][1,4]oxazine-7,4-diyl))diacetonitrile]	305
O=C1COc2cc(-c3cccc(-c4cccc(-c5ccc6c(c5)OCC(=O)N6C[C@@H]5CCC(=O)N5)c4Cl)c3Cl)ccc2N1 [Compound 429, (S)-7-(2,2′-dichloro-3′-(3-oxo-3,4-dihydro-2H-benzo[b][1,4]oxazin-7-yl)-[1,1′-biphenyl]-3-yl)-4-((5-oxopyrrolidin-2-yl)methyl)-2H-benzo[b][1,4]oxazin-3(4H)-one]	20.8
O=C1CC(CN2C(=O)COc3cc(-c4cccc(-c5cccc(-c6ccc7c(c6)OCC(=O)N7C[C@@H]6CCC(=O)N6)c5Cl)c4Cl)ccc32)CN1 (some centres unmarked) [Compound 450]	6.47
O=C1CC[C@@H](CN2C(=O)COc3cc(-c4cccc(-c5cccc(-c6ccc7c(c6)OCC(=O)N7CCN6C[C@H](O)C[C@@H]6C(=O)O)c5Cl)c4Cl)ccc32)N1 [Compound 488]	6.2
O=C1CC[C@@H](CN2CCCc3cc(-c4cccc(-c5cccc(-c6ccc7c(c6)CCCN7C[C@@H]6CCC(=O)N6)c5Cl)c4Cl)ccc32)N1 [Compound 303]	187
O=C1CC[C@@H](CN2C(=O)COc3cc(-c4cccc(-c5cccc(-c6cc(Cl)c7c(c6)OCC(=O)N7C[C@@H]6CCC(=O)N6)c5Cl)c4Cl)cc(Cl)c32)N1 [Compound 376]	200
O=C1CC[C@@H](CN2C(=O)COc3cc(-c4cccc(-c5cccc(-c6cnc7c(c6)OCC(=O)N7C[C@@H]6CCC(=O)N6)c5Cl)c4Cl)cnc32)N1 [Compound 401]	9.78
O=C(O)C1CCN(CCN2C(=O)COc3cc(-c4cccc(-c5cccc(-c6ccc7c(c6)OCC(=O)N7CCNCCO)c5Cl)c4Cl)ccc32)C1 (centres unmarked) [Compound 493]	5.59
N#Cc1cncc(CN2C(=O)COc3cc(-c4cccc(-c5cccc(-c6ccc7c(c6)OCC(=O)N7Cc6cncc(C#N)c6)c5Cl)c4Cl)ccc32)c1 [Compound 430]	≥ 3000
CC(C)(C)OC[C@H](NCCN1C(=O)COc2cc(-c3cccc(-c4cccc(-c5ccc6c(c5)OCC(=O)N6CCN[C@@H](COC(C)(C)C)C(=O)O)c4Cl)c3Cl)ccc21)C(=O)O [Compound 571]	16
CC1(C)Cc2cc(-c3cccc(-c4cccc(-c5cnc6c(c5)OC(C)(C)C(=O)N6C[C@@H]5CCC(=O)N5)c4Cl)c3Cl)cnc2N(C[C@@H]2CCC(=O)N2)C1=O [Compound 382]	≥ 3000
CN(CCO)CCN1C(=O)COc2cc(-c3cccc(-c4cccc(-c5ccc6c(c5)OCC(=O)N6CCN(C)CCO)c4Cl)c3Cl)ccc21 [Compound 471]	4.7
O=C(O)C1CCC(=O)N1CCN1C(=O)COc2cc(-c3cccc(-c4cccc(-c5ccc6c(c5)OCC(=O)N6CCN5C(=O)CCC5C(=O)O)c4Cl)c3Cl)ccc21 (centres unmarked) [Compound 573]	287
CC(=O)NCCNCCN1C(=O)COc2cc(-c3cccc(-c4cccc(-c5ccc6c(c5)OCC(=O)N6CCNCCNC(C)=O)c4Cl)c3Cl)ccc21 [Compound 461]	4.06
O=C(O)[C@@H]1C[C@@H](O)CN1CCN1C(=O)COc2cc(-c3cccc(-c4cccc(-c5ccc6c(c5)OCC(=O)N6CCN5C[C@@H](O)C[C@H]5C(=O)O)c4Cl)c3Cl)ccc21 [Compound 482]	6.72
O=C1COc2cc(-c3cccc(-c4cccc(-c5ccc6c(c5)OCC(=O)N6Cc5nn[nH]n5)c4Cl)c3Cl)ccc2N1Cc1nn[nH]n1 [Compound 412]	≥ 3000
O=C1CC[C@H](CN2C(=O)COc3cc(-c4cccc(-c5cccc(-c6ccc7c(c6)OCC(=O)N7C[C@H]6CCC(=O)N6)c5Cl)c4Cl)ccc32)N1 [Compound 448]	5.45
O=C1CC[C@@H](CN2C(=O)COc3cc(-c4cccc(-c5cccc(-c6cc(F)c7c(c6)OCC(=O)N7C[C@@H]6CCC(=O)N6)c5Cl)c4Cl)cc(F)c32)N1 [Compound 396]	11.7
O=C(O)C1CCN(CCN2C(=O)COc3cc(-c4cccc(-c5cccc(-c6ccc7c(c6)OCC(=O)N7CCN6CCC(C(=O)O)C6)c5Cl)c4Cl)ccc32)C1 (centres unmarked) [Compound 469]	4.02
O=C(O)CCNCCN1C(=O)COc2cc(-c3cccc(-c4cccc(-c5ccc6c(c5)OCC(=O)N6CCN5CC[C@H](O)C5)c4Cl)c3Cl)ccc21 [Compound 491]	5.22
Nc1cc2c(cc1-c1cccc(-c3cccc(-c4cc5c(cc4N)N(C[C@@H]4CCC(=O)N4)C(=O)CO5)c3Cl)c1Cl)OCC(=O)N2C[C@@H]1CCC(=O)N1 [Compound 354]	2180
O=C1COc2cc(-c3cccc(-c4cccc(-c5ccc6c(c5)OCC(=O)N6C[C@H]5CCNC5)c4Cl)c3Cl)ccc2N1C[C@H]1CCNC1 [Compound 531]	7.22
